Source: US10870886B2, “Molecular diagnosis of FSHD by epigenetic signature” (University of Massachusetts Medical Center, priority 2014, dated 2020)

How the values were obtained:
[1] = tested on: ANKRD1 (Ankyrin Repeat Domain 1); test: ANKRD1 mRNA expression by qRT-PCR in drug-treated myocytes (control gene); assay type: cell-based, human; details: myocytes of cohorts 07 and 19, affected (A) and control (U)
Description: (§1) Drug treatment. Stock solutions of 100 mM 5-Aza-2′-deoxycytidine/Decitabine, (Sigma-Aldrich A3656) in DMSO, 5 mM Trichostatin A solution (TSA, Sigma-Aldrich T1952), and 10 mM chaetocin (Sigma-Aldrich C9492) in DMSO were stored at −20° C. and diluted with PBS just before adding to the culture. To minimize culturing artifacts, low passage (<30 population doublings) myoblast cultures were used for all experiments and culture pairs for affected vs healthy or affected vs nonmanifesting were within 1 passage of each other in all instances. Myoblasts were seeded on collagen-coated plates at a cell density of 1.9×10^3/cm^2. Starting the following day, Decitabine (5 μM final concentration) was added daily for a total of 3 days. When used, TSA (200 nM final concentration) or chaetocin (50 nM final concentration) was added to the cells for the last 24 hrs prior to sampling.
qRT-PCR. Total RNAs were extracted using Trizol (Invitrogen) and purified using the RNeasy Mini kit (Qiagen) after on-column DNase I digestion. Total RNA (2 μg) was used for cDNA synthesis using Superscript III Reverse Transcriptase (Invitrogen), and 200 ng of cDNA were used for DUX4-fl qPCR analysis as described. All data were normalized to levels of 18S rRNA [98]. Oligonucleotide primer sequences are provided in [33]. For the analysis of ANKRD1 mRNA expression, 40 ng of cDNA were used with primers hANKRD1 For: […] […]

[2] = tested on: DUX4-fl; test: DUX4-fl mRNA expression by qRT-PCR in myogenic cells treated with epigenetic drugs; assay type: cell-based, human; details: for DUX4-fl response: cells from nonmanifesting subjects 15B, 28B, 30B; for DUX4-fl levels: healthy control myogenic cells (five cohorts)
Description: as §1
qRT-PCR. Total RNAs were extracted using Trizol (Invitrogen) and purified using the RNeasy Mini kit (Qiagen) after on-column DNase I digestion. Total RNA (2 μg) was used for cDNA synthesis using Superscript III Reverse Transcriptase (Invitrogen), and 200 ng of cDNA were used for DUX4-fl qPCR analysis as described. All data were normalized to levels of 18S rRNA [98]. Oligonucleotide primer sequences are provided in [33]. For the analysis of ANKRD1 mRNA expression, 40 ng of cDNA were used with primers hANKRD1 For: […] (SEQ ID NO: 16) and Rev: […] (SEQ ID NO: 17).

[3] = cells from FSHD1 individuals manifesting weakness 15A, 28A, 29A, 30A
[4] = myogenic cells of FSHD1-affected subject 03A, relative to untreated, Decitabine 5 μM daily 3 days, TSA 200 nM last 24 hrs

## CC(/C=C/C(=O)NO)=C\[C@@H](C)C(=O)c1ccc(N(C)C)cc1 [TSA, Trichostatin A]
[1]
  ANKRD1 expression: induced ANKRD1 expression
[2]; [3]
  DUX4-fl expression: little to no effect
[2]
  DUX4-fl response: little to no response
  DUX4-fl levels: no effect
[2]; cohorts 07 and 19
  DUX4-fl expression: no effect
[2]; [4]
  DUX4-fl induction: showed induction

## Nc1ncn([C@H]2C[C@H](O)[C@@H](CO)O2)c(=O)n1 [Decitabine, 5-aza-2′-deoxycytidine]
[2]; [3]
  DUX4-fl expression: induced DUX4-fl expression
[2]
  DUX4-fl response: little to no response
  DUX4-fl levels: only mildly induced
[2]; cohort 07, as quoted in FIG. 22 legend from FIG. 20
  DUX4-fl induction: 20 fold
[2]; cohort 19, as quoted in FIG. 22 legend from FIG. 20
  DUX4-fl induction: 32 fold
[2]; [4]
  DUX4-fl induction: 50 fold
[2]; myogenic cells of FSHD1-affected subject 07A, relative to untreated
  DUX4-fl induction: 120 fold
[2]; myogenic cells of FSHD1-affected subject 09A
  DUX4-fl induction: did not show induction
[2]; myogenic cells of FSHD1-affected subject 17A, relative to untreated
  DUX4-fl induction: 3.2 fold
[2]; myogenic cells of FSHD1-affected subject 19A, relative to untreated
  DUX4-fl induction: 122 fold
